Here are results for one compound from patent publication US20090196930A1, “AEROSOLIZED NITRITE AND NITRIC OXIDE -DONATING COMPOUNDS AND USES THEREOF” (Aires Pharmaceuticals, Inc., priority 2007, published 2009).

For series [1] the following is noted: for VMD: n = 6, mean ± sd. On the procedure: It was evaluated in tidal breathing mode (TBM) only.
The output characteristics of the three nebulizers (one of each type) were measured to determine the particle size distribution, inspired dose, residual dose, nebulizer output and duration of nebulization. The nebulizer efficiency, defined as the inhaled fine particle dose as a percent of the total loaded dose, was also determined. Each nebulizer was studied in duplicate, for a total of 6 measures per device type.
Particle Sizing. Nebulizers were weighed dry, full, and at the end of each study to determine gravimetric output and residual volume. Nebulizers were connected to the inhalation cell of the Insitec Laser (Malvern Instruments Ltd, Malvern, Worcestershire, UK) using a flexible airtight connector. The nebulizer and inhalation cell were oriented in a horizontal position. The output end of the inhalation cell was connected to a vacuum generator providing a continuous flow of 20 LPM across the laser beam. For measurements made with the I-neb, the output end of the inhalation cell was connected to a breath simulator, which permitted cyclic particle size measurements using the following breathing pattern: Rate=15 bpm, Volume=500 mL, I.T=2.0 seconds. This is the breathing pattern used for the output studies as well.
Each study was timed from the beginning of nebulization and run for a total of 2 minutes. During the first minute, no measurements were made to allow for equilibration of the solution. Particle sizing was begun and analyzed continuously for the duration of the 2nd minute. All data points were averaged for each measure.
1. VMD: Volume Median Diameter
2. GSD: Geometric Standard Deviation
3. %<3p: The percent of particles <3 microns
4. %<5p: The percent of particles <5 microns
5. Duration: Two minute total cycle time

Where two headings read alike, the source gives them in different places.

Consider `O=NO` [sodium nitrite], for which the GSD in series [1] (Aeroneb Go) is 2.1 ± 0.1; in series [1] (I-neb), 1.8 ± 0.1; in series [1] (PARI STAR), 2.8 ± 0.1. Besides, the VMD in series [1] (Aeroneb Go) is reported as 4.6 ± 0.1; in series [1] (I-neb), 4.8 ± 0.5; in series [1] (PARI STAR), 1.7 ± 0.1. Also, in the series on Isolated rabbit lungs (16.7 mg/mL sodium nitrite in phosphate buffer or phosphate/citric acid buffer, 5 min nebulization), the “hypoxia-induced elevated PAP” value was “significantly reduced”. Besides, the “expired nitric oxide compared to control” value with Isolated rabbit lungs (both sodium nitrite preparations (phosphate buffer; citric acid/phosphate buffer)) is “significantly increased”. Further, in the series on Isolated rabbit lungs (mg sodium nitrite (2.8 mg nitrite)), the “lung-delivered dose up to which lung weights (edema) were stable” value is recorded as “up to 4.2 mg”. The “decrease of PAP compared with pre-drug hypoxic challenge” value in the series with Isolated rabbit lungs (sodium nitrite in phosphate buffer or citric acid/phosphate buffer, nebulized during second hypoxic challenge (3% oxygen), p<0.05) is on record as “over 50%”. Also, in the series on Isolated rabbit lungs (sodium nitrite in phosphate buffer, nebulized during third hypoxic challenge), the “half life of effect on hypoxia-induced PAP” value is given as approximately 10 min.
